According to ChEMBL document CHEMBL1909046, “DrugMatrix in vitro pharmacology data”:

Legend:
[1] = target: Histamine H2 receptor (Homo sapiens, UniProt P25021); type: cell membranes, CHO-K1, Membrane; settings: cho-k1; note: in other assays of this panel Not Active means under 50% inhibition at 10 µM
[2] = target: Sodium-dependent dopamine transporter (Homo sapiens, UniProt Q01959); test: DRUGMATRIX: Dopamine Transporter radioligand binding (ligand: [125I] RTI-55); type: cell membranes, CHO-K1, Membrane; settings: cho-k1; Not Active = under 50% inhibition at 10 µM
Chain of Sodium-dependent dopamine transporter (Q01959 whole entry): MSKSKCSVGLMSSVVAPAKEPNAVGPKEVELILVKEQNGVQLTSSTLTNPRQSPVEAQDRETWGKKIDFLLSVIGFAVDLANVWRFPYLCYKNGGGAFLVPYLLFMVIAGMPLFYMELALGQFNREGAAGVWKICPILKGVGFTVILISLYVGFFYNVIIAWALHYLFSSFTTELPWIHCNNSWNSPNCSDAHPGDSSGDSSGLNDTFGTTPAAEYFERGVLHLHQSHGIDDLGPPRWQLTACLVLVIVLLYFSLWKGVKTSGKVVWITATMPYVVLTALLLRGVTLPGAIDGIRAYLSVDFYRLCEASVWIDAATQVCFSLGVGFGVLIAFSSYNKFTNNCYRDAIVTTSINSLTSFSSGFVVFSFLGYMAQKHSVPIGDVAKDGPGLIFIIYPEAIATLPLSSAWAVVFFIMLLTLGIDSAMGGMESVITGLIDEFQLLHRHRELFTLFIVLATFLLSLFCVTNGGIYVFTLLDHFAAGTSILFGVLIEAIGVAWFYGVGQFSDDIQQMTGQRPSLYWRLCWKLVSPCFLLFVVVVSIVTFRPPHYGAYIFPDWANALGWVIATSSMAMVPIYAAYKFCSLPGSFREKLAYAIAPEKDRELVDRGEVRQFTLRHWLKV

[3] = DRUGMATRIX: Glutamate, Kainate radioligand binding (ligand: [3H] Kainic acid); type: cell membranes, Rattus norvegicus, Wistar, Brain, Membrane; settings: Not Active = under 50% inhibition at 10 µM
[4] = target: T1, D(4) dopamine receptor (Homo sapiens, UniProt P21917); test: DRUGMATRIX: Dopamine D4.2 radioligand binding (ligand: [3H] Spiperone); type: cell membranes, CHO-K1, Membrane; settings: cho-k1; Not Active = under 50% inhibition at 10 µM
T1 sequence (P21917 whole entry): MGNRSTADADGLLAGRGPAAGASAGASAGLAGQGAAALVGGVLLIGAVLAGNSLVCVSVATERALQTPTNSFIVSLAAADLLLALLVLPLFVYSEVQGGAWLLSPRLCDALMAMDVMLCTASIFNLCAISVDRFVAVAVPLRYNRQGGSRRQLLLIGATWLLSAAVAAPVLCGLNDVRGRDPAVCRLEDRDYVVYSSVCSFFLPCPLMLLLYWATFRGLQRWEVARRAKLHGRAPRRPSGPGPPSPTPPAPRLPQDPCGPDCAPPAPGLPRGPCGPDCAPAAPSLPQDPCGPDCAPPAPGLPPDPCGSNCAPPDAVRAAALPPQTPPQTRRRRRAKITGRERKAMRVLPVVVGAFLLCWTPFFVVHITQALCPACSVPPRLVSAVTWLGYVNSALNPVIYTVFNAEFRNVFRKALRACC

[5] = target: T2, Leukotriene C4 synthase (Cavia porcellus, UniProt A6XA80); test: biochemical; type: tissue-based, Lung;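 note: enzyme inhibition assay of leukotriene C4 synthase, using LTA4 as the substrate; in other assays of this panel Not Active means under 50% inhibition at 10 µM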
T2 sequence (A6XA80 whole entry): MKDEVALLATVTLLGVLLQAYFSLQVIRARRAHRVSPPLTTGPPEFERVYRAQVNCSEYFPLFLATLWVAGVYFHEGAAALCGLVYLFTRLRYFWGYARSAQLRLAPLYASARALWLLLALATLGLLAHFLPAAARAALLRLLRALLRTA

[6] = target: T3, C-C chemokine receptor type 4 (Homo sapiens, UniProt P51679); type: cell membranes, Membrane; settings: chem-1; note: in other assays of this panel Not Active means under 50% inhibition at 10 µM
T3 sequence (P51679 whole entry): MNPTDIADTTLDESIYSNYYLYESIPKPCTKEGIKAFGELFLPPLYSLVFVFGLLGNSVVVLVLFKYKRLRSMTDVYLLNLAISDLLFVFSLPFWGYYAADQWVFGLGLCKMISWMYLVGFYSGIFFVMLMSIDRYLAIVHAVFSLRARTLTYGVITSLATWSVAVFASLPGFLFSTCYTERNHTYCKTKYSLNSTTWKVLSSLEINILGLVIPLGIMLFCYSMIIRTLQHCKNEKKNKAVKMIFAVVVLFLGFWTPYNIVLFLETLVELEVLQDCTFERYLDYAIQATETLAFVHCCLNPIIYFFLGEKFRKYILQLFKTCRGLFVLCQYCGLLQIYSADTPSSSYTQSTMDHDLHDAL

[7] = DRUGMATRIX: Sigma2 radioligand binding (ligand: [3H] Ifenprodil); type: cell membranes, Rattus norvegicus, Wistar, Brain, Membrane; settings: Not Active = under 50% inhibition at 10 µM
[8] = target: 5-hydroxytryptamine receptor 4 (Cavia porcellus, UniProt O70528); type: cell membranes, Dunkin-Hartley, Striatum, Membrane; note: in other assays of this panel Not Active means under 50% inhibition at 10 µM
Chain of 5-hydroxytryptamine receptor 4 (O70528 whole entry): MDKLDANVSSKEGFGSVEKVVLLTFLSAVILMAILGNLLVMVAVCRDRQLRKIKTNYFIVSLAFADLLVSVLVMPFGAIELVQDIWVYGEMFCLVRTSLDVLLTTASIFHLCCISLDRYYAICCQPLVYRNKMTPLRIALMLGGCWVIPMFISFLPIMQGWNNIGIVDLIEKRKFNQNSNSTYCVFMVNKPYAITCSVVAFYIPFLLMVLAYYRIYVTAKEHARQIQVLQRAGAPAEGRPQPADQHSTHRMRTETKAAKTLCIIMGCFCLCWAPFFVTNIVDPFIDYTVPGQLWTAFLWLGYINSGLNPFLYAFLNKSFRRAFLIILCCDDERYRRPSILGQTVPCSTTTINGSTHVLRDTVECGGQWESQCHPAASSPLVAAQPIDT

[9] = target: Tyrosine-protein kinase Fyn (Homo sapiens, UniProt P06241); test: biochemical; type: cell-based, Insect cells; settings: insect cells
Chain of Tyrosine-protein kinase Fyn (P06241 whole entry): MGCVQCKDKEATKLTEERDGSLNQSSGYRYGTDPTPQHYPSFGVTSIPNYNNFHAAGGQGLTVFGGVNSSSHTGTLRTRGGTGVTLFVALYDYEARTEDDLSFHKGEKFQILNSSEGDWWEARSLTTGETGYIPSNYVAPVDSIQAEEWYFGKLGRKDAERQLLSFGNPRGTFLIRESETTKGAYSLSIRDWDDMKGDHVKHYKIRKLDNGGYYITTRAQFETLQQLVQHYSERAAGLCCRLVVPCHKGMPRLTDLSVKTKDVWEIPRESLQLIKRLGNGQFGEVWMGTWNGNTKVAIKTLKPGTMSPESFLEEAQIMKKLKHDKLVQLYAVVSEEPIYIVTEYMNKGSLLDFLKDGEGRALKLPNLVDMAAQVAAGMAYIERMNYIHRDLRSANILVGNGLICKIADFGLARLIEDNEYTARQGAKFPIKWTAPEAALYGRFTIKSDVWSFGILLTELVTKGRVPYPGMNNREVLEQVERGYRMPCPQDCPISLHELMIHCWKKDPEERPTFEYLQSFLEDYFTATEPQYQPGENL

[10] = DRUGMATRIX: Purinergic P2X radioligand binding (ligand: [3H] alpha, beta-Methylene-ATP); type: cell membranes, Oryctolagus cuniculus, New Zealand albino, Urinary bladder, Membrane; settings: Not Active = under 50% inhibition at 10 µM
[11] = DRUGMATRIX: Glutamate, NMDA, Phencyclidine radioligand binding (ligand: [3H] TCP); type: cell membranes, Rattus norvegicus, Wistar, Cerebral cortex, Membrane; settings: Not Active = under 50% inhibition at 10 µM
[12] = target: Beta-3 adrenergic receptor (Homo sapiens, UniProt P13945); test: DRUGMATRIX: Adrenergic beta3 radioligand binding (ligand: [125I] Cyanopindolol); type: cell membranes, HEK293, Membrane; settings: hek293; Not Active = under 50% inhibition at 10 µM
Chain of Beta-3 adrenergic receptor (P13945 whole entry): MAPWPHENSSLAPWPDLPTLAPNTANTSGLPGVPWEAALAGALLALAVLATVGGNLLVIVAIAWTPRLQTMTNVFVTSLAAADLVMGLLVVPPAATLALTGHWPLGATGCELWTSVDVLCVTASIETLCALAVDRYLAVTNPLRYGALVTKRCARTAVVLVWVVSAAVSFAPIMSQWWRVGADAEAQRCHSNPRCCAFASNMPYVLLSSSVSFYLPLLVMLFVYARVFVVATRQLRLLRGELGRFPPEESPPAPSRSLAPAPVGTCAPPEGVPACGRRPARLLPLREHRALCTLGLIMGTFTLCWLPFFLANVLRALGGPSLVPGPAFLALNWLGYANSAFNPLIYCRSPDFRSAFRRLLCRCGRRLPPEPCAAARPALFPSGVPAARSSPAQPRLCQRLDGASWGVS

[13] = DRUGMATRIX: Phosphodiesterase PDE3 enzyme inhibition (substrate: [3H]cAMP + cAMP); type: tissue-based, Homo sapiens; settings: platelet; Not Active = under 50% inhibition at 10 µM
[14] = target: C-C chemokine receptor type 2 (Homo sapiens, UniProt P41597); type: cell membranes, CHO-K1, Membrane; settings: cho-k1; note: in other assays of this panel Not Active means under 50% inhibition at 10 µM
Chain of C-C chemokine receptor type 2 (P41597 whole entry): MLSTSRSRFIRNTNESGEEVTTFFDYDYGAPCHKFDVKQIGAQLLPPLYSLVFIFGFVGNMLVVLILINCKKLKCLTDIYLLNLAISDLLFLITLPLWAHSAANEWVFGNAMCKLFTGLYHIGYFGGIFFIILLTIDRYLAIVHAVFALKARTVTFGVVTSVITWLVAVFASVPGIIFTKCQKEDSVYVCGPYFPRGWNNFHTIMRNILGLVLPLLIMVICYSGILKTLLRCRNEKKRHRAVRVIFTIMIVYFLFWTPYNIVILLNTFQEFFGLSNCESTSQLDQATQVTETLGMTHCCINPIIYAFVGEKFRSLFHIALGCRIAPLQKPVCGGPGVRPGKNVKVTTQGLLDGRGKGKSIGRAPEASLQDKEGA

[15] = target: T4, Substance-K receptor (Homo sapiens, UniProt P21452); type: cell membranes, CHO, Membrane; settings: cho; note: in other assays of this panel Not Active means under 50% inhibition at 10 µM
T4 sequence (P21452 whole entry): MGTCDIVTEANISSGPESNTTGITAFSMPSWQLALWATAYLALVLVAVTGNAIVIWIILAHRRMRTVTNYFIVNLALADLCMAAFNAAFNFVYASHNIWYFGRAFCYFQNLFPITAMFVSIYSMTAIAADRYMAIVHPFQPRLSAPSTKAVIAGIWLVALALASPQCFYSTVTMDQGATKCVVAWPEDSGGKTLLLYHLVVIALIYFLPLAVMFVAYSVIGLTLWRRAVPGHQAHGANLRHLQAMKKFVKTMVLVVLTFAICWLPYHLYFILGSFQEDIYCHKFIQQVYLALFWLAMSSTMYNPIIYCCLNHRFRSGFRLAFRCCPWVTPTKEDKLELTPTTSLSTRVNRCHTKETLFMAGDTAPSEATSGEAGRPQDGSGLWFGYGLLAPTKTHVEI

[16] = target: T5, Muscarinic acetylcholine receptor M4 (Homo sapiens, UniProt P08173); type: cell membranes, CHO-K1, Membrane; settings: cho-k1; note: in other assays of this panel Not Active means under 50% inhibition at 10 µM
T5 sequence (P08173 whole entry): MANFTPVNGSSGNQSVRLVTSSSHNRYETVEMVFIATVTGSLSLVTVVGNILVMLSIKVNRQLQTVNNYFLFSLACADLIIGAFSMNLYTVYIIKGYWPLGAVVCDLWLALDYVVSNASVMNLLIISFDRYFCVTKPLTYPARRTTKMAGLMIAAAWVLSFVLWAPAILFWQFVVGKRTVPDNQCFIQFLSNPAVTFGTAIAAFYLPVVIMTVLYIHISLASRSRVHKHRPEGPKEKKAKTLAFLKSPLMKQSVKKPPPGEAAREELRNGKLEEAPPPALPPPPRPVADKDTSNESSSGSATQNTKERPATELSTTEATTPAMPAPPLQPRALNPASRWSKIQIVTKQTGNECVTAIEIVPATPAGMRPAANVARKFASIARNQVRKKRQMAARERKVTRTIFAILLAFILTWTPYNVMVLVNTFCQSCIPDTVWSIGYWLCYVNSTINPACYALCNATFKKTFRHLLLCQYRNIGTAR

Chain of Histamine H2 receptor (P25021 whole entry): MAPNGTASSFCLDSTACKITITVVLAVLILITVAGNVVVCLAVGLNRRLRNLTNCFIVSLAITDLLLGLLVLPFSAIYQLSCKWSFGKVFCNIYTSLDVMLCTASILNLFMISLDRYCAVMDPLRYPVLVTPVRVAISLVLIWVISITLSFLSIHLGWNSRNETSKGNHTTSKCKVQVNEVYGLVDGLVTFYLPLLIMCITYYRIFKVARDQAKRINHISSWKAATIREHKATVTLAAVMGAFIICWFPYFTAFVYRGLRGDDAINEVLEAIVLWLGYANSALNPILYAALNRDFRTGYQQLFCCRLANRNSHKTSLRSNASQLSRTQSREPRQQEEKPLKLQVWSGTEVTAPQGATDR

CCCCOC(=O)c1ccc(N)cc1 [BUTAMBEN]
Not Active: IC50 [1] | IC50 [2] | IC50 [3] | Ki [3] | IC50 [4] | IC50 [5] | IC50 [6] | IC50 [7] | Ki [7] | IC50 [8] | IC50 [9] | IC50 [10] | Ki [10] | IC50 [11] | Ki [11] | IC50 [12] | IC50 [13] | Ki [13] | IC50 [14] | IC50 [15] | IC50 [16]

CC(=O)O[C@]1(C(C)=O)CC[C@H]2[C@@H]3C=C(Cl)C4=CC(=O)CC[C@]4(C)[C@H]3CC[C@@]21C [CHLORMADINONE ACETATE]
Not Active: IC50 [1] | IC50 [2] | IC50 [3] | Ki [3] | IC50 [4] | IC50 [5] | IC50 [6] | IC50 [7] | Ki [7] | IC50 [8] | IC50 [9] | IC50 [10] | Ki [10] | IC50 [11] | Ki [11] | IC50 [12] | IC50 [13] | Ki [13] | IC50 [14] | IC50 [15] | IC50 [16]

O=C(O)c1cn(C2CC2)c2cc(N3CCNCC3)c(F)cc2c1=O [CIPROFLOXACIN]
Not Active: IC50 [1] | IC50 [2] | IC50 [3] | Ki [3] | IC50 [4] | IC50 [5] | IC50 [6] | IC50 [7] | Ki [7] | IC50 [8] | IC50 [9] | IC50 [10] | Ki [10] | IC50 [11] | Ki [11] | IC50 [12] | IC50 [13] | Ki [13] | IC50 [14] | IC50 [15] | IC50 [16]

Nc1nc(=O)[nH]cc1F [FLUCYTOSINE]
Not Active: IC50 [1] | IC50 [2] | IC50 [3] | Ki [3] | IC50 [4] | IC50 [5] | IC50 [6] | IC50 [7] | Ki [7] | IC50 [8] | IC50 [9] | IC50 [10] | Ki [10] | IC50 [11] | Ki [11] | IC50 [12] | IC50 [13] | Ki [13] | IC50 [14] | IC50 [15] | IC50 [16]

O=C1OC2(c3ccc(O)cc3Oc3cc(O)ccc32)c2ccccc21 [FLUORESCEIN]
Not Active: IC50 [1] | IC50 [2] | IC50 [3] | Ki [3] | IC50 [4] | IC50 [5] | IC50 [6] | IC50 [7] | Ki [7] | IC50 [8] | IC50 [9] | IC50 [10] | Ki [10] | IC50 [11] | Ki [11] | IC50 [12] | IC50 [13] | Ki [13] | IC50 [14] | IC50 [15] | IC50 [16]
